Results reported in BindingDB's records for doi:10.1021/jm200999f (Corning, 2011).

Target: G-protein coupled receptor 35 (Homo sapiens, UniProt Q9HC97)
Assay: Antagonist activity at GPR35 in human HT-29 cells assessed as inhibition of zaprinast-induced DMR by dynamic mass redistribution assay

Sequence of G-protein coupled receptor 35 (Q9HC97 whole entry): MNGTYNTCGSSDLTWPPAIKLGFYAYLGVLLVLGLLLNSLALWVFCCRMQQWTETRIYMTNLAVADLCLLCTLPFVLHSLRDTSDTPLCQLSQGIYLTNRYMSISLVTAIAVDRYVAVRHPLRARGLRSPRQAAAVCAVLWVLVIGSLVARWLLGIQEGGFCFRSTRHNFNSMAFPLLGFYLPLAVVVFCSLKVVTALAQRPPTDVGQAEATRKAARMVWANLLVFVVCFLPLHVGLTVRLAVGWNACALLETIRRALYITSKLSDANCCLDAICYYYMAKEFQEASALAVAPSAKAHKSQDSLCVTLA

IC50: 10.5 µM
Compound: CCCOc1ccccc1-c1nc2nn[nH]c2c(=O)[nH]1 [5-(2-propoxyphenyl)-2H,3H,7H-[1,2,3]triazolo[4,5-d]pyrimidin-7-one]
